{"source": "patent US10463669B2", "about": "“Composition for treating or preventing liver cancer” (Seoul National University R&DB Foundation, priority 2016, dated 2019)", "assay_type_in_all_cases": "cell-based, human", "key": {"[1]": {"test_system": "β-catenin and SetD1A binding to the TERT promoter in Huh7 cells", "experiment": "Chromatin immunoprecipitation (ChIP) at the TERT promoter", "conditions": "HCC (Huh7) cells, with or without 300 μmol/L H2O2", "experimental": "As it has been described before (Lim S O, et al. Gastroenterology. 2008; 135: 2128-40, 40 el-8.; Hoffmeyer K, et al. Science. 2012; 336: 1549-54.), several modified ChIP (chromatin immunoprecipitation) tests were carried out. In the presence or absence of a PI3K inhibitor, an AKT inhibitor, or a GSK3β inhibitor, Huh7 cells were cultured for 4 days with or without a treatment of 300 μmol/L H2O2. Under mild shaking for 20 minutes at room temperature, the cells were fixed by using 1% paraformaldehyde. After that, the cells were rinsed twice with ice-cold PBS; resuspended with 400 μL of micrococcal nuclease buffer (50 mmol/L TrisHCl [pH 8.0], 5 mmol/L CaC12, 100 μg/mL BSA, 10 mmol/L KCl, and protease inhibitor cocktail [Roche, Basel, Switzerland; 4693159001]); and disrupted with 2 mm-diameter zirconium beads (Watson); to have micrococcal nuclease digestion (New England Biolabs, Beverly, Mass., USA; M0247S). Chromatin (150 μg) was collected and diluted in a dilution buffer (0.1% NP-40, 2 mmol/L EDTA, 150 mmol/L NaCl, 20 mmol/L TrisHCl [pH 8.0], protease inhibitor cocktail [Roche]), and a phosphatase inhibitor cocktail [Calbiochem]), and then subjected to pre-clearing with 2 μg digested salmon sperm DNA, 10 μL preimmune serum (Santa Cruz Biotechnology; sc-2027), and Dynabeads Protein G (Life Technologies; 1004D) for 2 hours at 4° C. After the immunoprecipitation, 20 μL of Dynabeads Protein G were added thereto and the culture was continued for 2 hours. The Dynabeads were washed continuously for 10 minutes with TSE 1 (0.1% SDS, 1% Triton X-100, 2 mmol/L EDTA, 20 mmol/L TrisHCl, and 150 mmol/L NaCl), TSE II (0.1% SDS, 1% Triton X-100, 2 mmol/L EDTA, 20 mmol/L TrisHCl, and 500 mmol/L NaCl), and buffer III (0.25 mol/L LiCl, 1% NP-40, 1% deoxycholate, 1 mmol/L EDTA, and 10 mmol/L TrisHCl). After that, the beads were washed 3 times with TE buffer, and extraction was made by using 1% SDS and 0.1 mol/L NaHCO3. To have reverse formaldehyde cross-linking, the elution solution was heated overnight at 65° C. By using NucleoSpin DNA clean-up kit, DNA debris were purified. By using primers specific to the TERT promoter region, the PCR amplified product was quantified by qPCR (ABI 7300; Applied Biosystems, Foster City, Calif., USA). The PCR amplification was normalized against the TERT intron. The primer sequences are as follows: β-catenin interaction site for ChIP (forward primer: TCCCGGGTCCCCGGCCCA (SEQ ID NO:8); reverse primer: […] (SEQ ID NO:9)) and TERT intron for ChIP (forward primer: […] (SEQ ID NO:10); reverse primer: […] (SEQ ID NO:11)). For each of the β-catenin interaction site which has been recorded before, 20-22 bp were added. The antibodies that are used are as follows: rabbit polyclonal anti-β-catenin (1:200, Abcam, Cambridge, Mass., USA; ab6302), mouse monoclonal anti-RNA polymerase II (1:50, Covance, Princeton, N.J., USA; MMS-126R), and rabbit polyclonal anti-SETD1A (1:100, Novus Biologicals, Littleton, Colo., USA; NBP1-81513).\nInventors of the present invention made an investigation to see whether or not the increased chromatin accessibility in TERT promoter during TERT transcription is related with β-catenin. To do so, by using intrinsic β-catenin and an antibody against histone methyl transferase SetD1A which has been reported to promote the TERT transcription based on chromatin remodeling, chromatin immunoprecipitation was carried out. When a PI3K or AKT inhibitor is treated together for chromatin immunoprecipitation, β-catenin and SetD1A, which bind to the TERT promoter in HCC cells, were reduced even in the presence of H2O2 (FIGS. 3A and 3B). However, when the treatment is carried out also with a GSK3p inhibitor, increased binding of β-catenin and SetD1A was shown regardless of a treatment with H2O2 (FIG. 3C)."}, "[2]": {"test_system": "TERT expression in HCC cell lines (Huh7 and Hep3B)", "experiment": "TERT expression, quantitative real time-PCR and immunoblot", "conditions": "HCC cells treated simultaneously with NAC and H2O2", "experimental": "Medium was exchanged every day, and the aforementioned cells were cultured for 4 days in 300 μmol/L hydrogen peroxide (H2O2) (Sigma Aldrich; H1009). In several experiments, the cells were treated for 1 hour with 5 mmol/L N-acetylcysteine (NAC) (Sigma Aldrich; A7250), 25 μmol/L idelalisib (LC Laboratoties, Woburn, Mass., USA; I-7447), 25 μmol/L perifosine (LC Laboratoties, Woburn, Mass., USA; P-6522), or 30 μmol/L GSK3β inhibitor (GSK3β inhibitor XI) (Santa Cruz; sc-204770) (31) before adding H2O2. Furthermore, sterilized distilled water (pH 7.0) was used as a negative control (i.e., mock treatment).\nPCR was carried out by using TOPrealm qPCR 2×PreMIX (SYBR Green with high ROX) (Enzynomics, Daejeon, Korea; RT501M) and ABI Prism 7300 thermal cycler (Applied Biosystems, Foster City, Calif., USA). […] To examine the primer specificity, a dissociation step was additionally included.\nTotal 2×10^5 cells were boiled for 5 minutes in 2×SDS sample buffer (100 mmol/L TrisHCl [pH 6.8], 4% SDS, 0.2% bromophenol blue, 20% glycerol, and 200 mmol/L β-mercaptoethanol), and then subjected to SDS-PAGE and Western blotting. To detect the TERT, the cells were cultured in 2×SDS sample buffer for 15 minutes at 55° C. TERT-specific (1:300, Rockland Immunochemicals, Gilbertsville, Pa., USA; 600-401-252), AKT-specific (1:1000, Cell Signaling Technology; #9272), phospho-AKT-specific (1:2000, Cell Signaling Technology; #4060), GAPDH-specific (1:2000, Santa Cruz Biotechnology; sc-47724), or β-actin-specific (1:2000, Sigma-Aldrich, St. Louis, Mo., USA; A5441) antibody was diluted in 5% skim milk or bovine serum albumin with TBS-Tween 20, cultured overnight at 4° C., washed, and cultured with HRP-conjugated secondary antibody (1:1000, Abcam; ab131368, or ab131366). By using FUSION-SOLO imager (Vilber Lourmat, Marne La Vallee, France), a chemical fluorescence image was obtained."}, "[3]": {"test_system": "telomere length in HCC cell lines (Huh7 and Hep3B)", "experiment": "Telomere length (Southern blot, immunoFISH, Flow FISH, quantitative PCR)", "conditions": "HCC cells treated simultaneously with NAC and H2O2", "experimental": "Volume of the hybridization buffer was adjusted to 100 μl per 10^5 cells. Next, each sample was cultured for 10 minutes in a water bath at 85° C. […] Total 15,000 to 20,000 nuclei were analyzed for the each separate culture. Telomere fluorescence intensity of the all nuclei at […] phase of the cell cycle was measured by using BD FACS Calibur flow cytometer (Becton Dickinson, Franklin Lakes, N.J., USA) in which CELLQUEST software is used. The established ImmunoFISH protocol (Plentz R R, et al., Hepatology. 2007; 45: 968-76) was used with slight modifications. The paraffin-embedded section was subjected to de-paraffinization using xylene, and then rehydrated using ethanol gradient. Antigen retrieval was carried out by boiling in 100 mmol/L sodium citrate (pH 6.0) for 10 minutes in a microwave. After permeation of proteinase K (15 μg/mL in PBS [pH 7.4]) for 20 minutes at 37° C., 8-oxo-dG-specific antibody (1:100, Abcam, Cambridge, Mass., USA; ab62623) was subjected to 1% BSA dilution in PBS 0.1% Triton X-100 and cultured overnight at room temperature. After washing, the slide was treated with Alexa 647 secondary antibody for 1 hour. […] After denaturation for 6 minutes at 90° C., the sample was hybridized for 2 hours at dark place. […] After washing, the slide was rinsed with PBS containing DAPI, and then sealed with a DAPI sealing agent (mounting medium) (Vector Laboratories, Burlingame, Calif., USA). Simultaneously, the inventors of the present invention carried out centromere staining as an internal control for telomere staining and 8-oxo-dG staining. […] For quantification of the telomere fluorescence intensity, centromere fluorescence intensity, and 8-oxo-dG fluorescence intensity, the same exposure time was employed. The telomere fluorescence level and 8-oxo-dG fluorescence level of tumor tissues were calculated by division of the fluorescence level in non-tumor tissues corresponding to 5 random fields. The image analysis was carried out by using Image-Pro plus 6.0 software (Media Cybernetics, Inc., Rockville, Md., USA). Telomere length was determined by using the non-radioactive chemical fluorescence TeloTAGGG telomere length assay (Roche; Cat. No. 12 209 136 001) according to the manual. Genomic DNA was separated from HCC cells using GeneJET Genomic DNA Purification Kit (Thermo Scientific; #K0721), and then 4 μg of the genomic DNA was digested for 16 hours at 37° C. with 20 units of […] digested DNA was subjected to 0.8% agarose gel electrophoresis, and then transferred to a positively charged nylon membrane using capillary transfer. The blotted DNA was hybridized for 16 hours at 42° C. with a digoxigenin (DIG)-labeled probe that is specific to the telomere repeat. After that, it was cultured for 30 minutes at room temperature with DIG-specific antibody conjugated to an alkaline phosphatase Based on quantitative PCR analysis using the genomic DNA extracted from cells, relative telomere repeat copy number (T) and single copy number (S) were determined, and the calculation was made like previous method in which T/S ratio is continuously modified (Cawthon R M. Telomere length measurement by a novel monochrome multiplex quantitative PCR method. Nucleic Acids Res. 2009; 37: e21)."}}, "data": [{"smiles": "O=C1NC(=O)C(c2cn(CCCO)c3ncccc23)=C1c1cnccn1", "note": "[GSK3β inhibitor XI]", "values": [{"measurement": "SetD1A binding to the TERT promoter", "setting": "[1]", "result": "increased"}, {"measurement": "β-catenin binding to the TERT promoter", "setting": "[1]", "result": "increased"}]}, {"smiles": "CC(=O)N[C@@H](CS)C(=O)O", "note": "[NAC, N-acetylcysteine]", "values": [{"measurement": "H2O2-induced increased TERT expression", "setting": "[2]", "result": "disappeared"}, {"measurement": "H2O2-induced increased telomere length", "setting": "[3]", "result": "disappeared"}]}, {"smiles": "CCCCCCCCCCCCCCCCCCOP(=O)([O-])OC1CC[N+](C)(C)CC1", "note": "[perifosine]", "values": [{"measurement": "SetD1A binding to the TERT promoter", "setting": "[1]", "result": "reduced"}, {"measurement": "β-catenin binding to the TERT promoter", "setting": "[1]", "result": "reduced"}]}]}
